According to patent US11648254B2 (Kumquat Biosciences Inc., priority 2021, dated 2023):
pIC50: −log10 of the molar value. Like-named read-outs stand apart in the source and are kept apart here.

Experiments:
SOS1 = SOS1 (Homo sapiens (Human), UniProt Q07889); assay: Ras-SOS interaction assay (HTRF); type: biochemical
[1] = test system: NCI-H1975 cells (EGFR T790M L858R); assay: EGFR-SOS cellular inhibition assay (CellTiter-Glo, 3D); type: cell-based; settings: Homo sapiens
[2] = test system: MIA PaCa-2 cells (K-Ras G12C); assay: Ras-SOS cellular growth inhibition assay (CellTiter-Glo, 3D); type: cell-based; settings: Homo sapiens
Outline: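 MIA PaCa-2 cells grown in ultra-low-attachment plates (3D) in DMEM/Ham's F12 with 10% FCS and 2.5% horse serum, treated the day after seeding with a 9-point 3-fold compound series for about 5 days. Viability by CellTiter-Glo luminescence; IC50 from four-parameter fit.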

[3] = K-RasG13D utilized, read-out: IC50 inhibition of SOS
[4] = K-RasG13D, read-out: IC50 value against SOS1
[5] = 120 h, NCI-H1975, 3D proliferation, about 5 days, read-out: Bio-Cell-Prolif-3D (H1975 IC50)
[6] = NCI-H1975, EGFR T790M L858R, read-out: IC50 in inhibiting growth of NCI-H1975 cell line
[7] = MIA PaCa-2, 120 h, MIA PaCa-2, 3D proliferation, about 5 days, read-out: Bio-Cell-Prolif-3D (MiaPaca2 IC50)
[8] = MIA PaCa-2, MIA PaCa-2, read-out: IC50 in inhibiting MIA PaCa-2 cell growth

SOS1, sequence (Q07889 564-1049): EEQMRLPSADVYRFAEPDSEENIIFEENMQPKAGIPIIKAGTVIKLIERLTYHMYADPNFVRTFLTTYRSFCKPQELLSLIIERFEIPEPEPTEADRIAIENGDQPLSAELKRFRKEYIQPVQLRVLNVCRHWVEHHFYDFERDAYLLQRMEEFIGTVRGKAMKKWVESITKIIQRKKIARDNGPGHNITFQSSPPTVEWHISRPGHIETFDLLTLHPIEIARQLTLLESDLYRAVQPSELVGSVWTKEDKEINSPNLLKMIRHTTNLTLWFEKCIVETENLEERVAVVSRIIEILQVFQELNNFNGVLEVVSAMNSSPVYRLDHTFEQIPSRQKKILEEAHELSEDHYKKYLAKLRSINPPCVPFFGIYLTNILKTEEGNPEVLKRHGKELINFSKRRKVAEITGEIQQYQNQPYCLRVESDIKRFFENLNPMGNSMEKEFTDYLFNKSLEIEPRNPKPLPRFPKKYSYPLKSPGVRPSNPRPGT

| Compound | pIC50 (SOS1; [3]) | pIC50 (SOS1; [4]) | pIC50 [1, 5] | pIC50 [1, 6] | pIC50 [2, 7] | pIC50 [2, 8] |
| --- | --- | --- | --- | --- | --- | --- |
| COc1nc2ncnc(N[C@H](C)c3cccc(C(F)(F)C4CN(C(C)C)C4)c3F)c2cc1C1CCS(=O)(=O)CC1 [Compound 283, (R)-4-(4-((1-(3-(difluoro(1-isopropylazetidin-3-yl)methyl)-2-fluorophenyl)ethyl)amino)-7-methoxypyrido[2,3-d]pyrimidin-6-yl)tetrahydro-2H-thiopyran-1,1-dioxide] | > 7.00 |  | ≥ 6.00 | > 6.30 | ≥ 6.00 | > 6.30 |
| COc1nc2nc(C)nc(N[C@H](C)c3cccc(C(F)(F)F)c3C)c2cc1C1(C#N)CCN(C(C)C)CC1 [Compound 285, (R)-1-isopropyl-4-(7-methoxy-2-methyl-4-((1-(2-methyl-3-(trifluoromethyl)phenyl)ethyl)amino)pyrido[2,3-d]pyrimidin-6-yl)piperidine-4-carbonitrile] | > 7.00 | > 7.30 | ≥ 6.00 |  | 5.00 to 6.00 |  |
| COc1nc2ncnc(N[C@H](C)c3cccc(C(F)(F)C4CCC(N(C)C)CC4)c3F)c2cc1C1CCS(=O)(=O)CC1 (stereo partly drawn) [Compound 289, (R)-4-(4-((1-(3-((4-(dimethylamino)cyclohexyl)difluoromethyl)-2-fluorophenyl)ethyl)amino)-7-methoxypyrido[2,3-d]pyrimidin-6-yl)tetrahydro-2H-thiopyran 1,1-dioxide] | > 7.00 | > 7.30 | ≥ 6.00 | > 6.30 | ≥ 6.00 | > 6.30 |
| CC(C)N1CCC(C(F)(F)c2cccc([C@@H](C)Nc3ncnc4nc(Cl)c(N5CCN(C(C)C)CC5)cc34)c2)CC1 [Compound 291, (R)-7-chloro-N-(1-(3-(difluoro(1-isopropylpiperidin-4-yl)methyl)phenyl)ethyl)-6-(4-isopropylpiperazin-1-yl)pyrido[2,3-d] pyrimidin-4-amine] | > 7.00 | > 7.30 | ≥ 6.00 | > 6.30 | ≥ 6.00 | > 6.30 |
| COc1nc2ncnc(N[C@H](C)c3cccc(C(C)(F)F)c3F)c2cc1N1CCS(=O)(=O)CC1 [Compound 292, (R)-4-(4-((1-(3-(1,1-difluoroethyl)-2-fluorophenyl)ethyl)amino)-7-methoxypyrido[2,3-d]pyrimidin-6-yl)thiomorpholine 1,1-dioxide] | > 7.00 | > 7.30 | ≥ 6.00 | > 6.30 | ≥ 6.00 | > 6.30 |
| Cc1nc(N[C@H](C)c2cccc(C(F)(F)C3CCN(C(C)C)CC3)c2)c2cc(N3CCN(C(C)C)CC3)c(Cl)nc2n1 [Compound 293, (R)-7-chloro-N-(1-(3-(difluoro(1-isopropylpiperidin-4-yl)methyl)phenyl)ethyl)-6-(4-isopropylpiperazin-1-yl)-2-methylpyrido[2,3-d] pyrimidin-4-amine] | > 7.00 | > 7.30 | ≥ 6.00 | > 6.30 | ≥ 6.00 | > 6.30 |
| COc1nc2nc(C)nc(N[C@H](C)c3cccc(C(F)(F)F)c3F)c2cc1C1CCN(C(=O)[C@@H]2COCCO2)CC1 [Compound 301, ((S)-1,4-dioxan-2-yl)(4-(4-(((R)-1-(2-fluoro-3-(trifluoromethyl)phenyl)ethyl)amino)-7-methoxy-2-methylpyrido[2,3-d]pyrimidin-6-yl)piperidin-1-yl)methanone] | > 7.00 | > 7.30 | ≥ 6.00 | > 6.30 | 5.00 to 6.00 |  |
| COc1nc2nc(C)nc(N[C@H](C)c3cccc(C(F)(F)F)c3F)c2cc1N1CCN(C(=O)CN(C)C)CC1 [Compound 312, (R)-2-(dimethylamino)-1-(4-(4-((1-(2-fluoro-3-(trifluoromethyl)phenyl)ethyl)amino)-7-methoxy-2-methylpyrido[2,3-d]pyrimidin-6-yl)piperazin-1-yl)ethan-1-one] | > 7.00 | > 7.30 | ≥ 6.00 | > 6.30 | ≥ 6.00 | > 6.30 |

Other lines, results leading:

| pIC50 (SOS1; [3]) | pIC50 (SOS1; [4]) | pIC50 [1, 5] | pIC50 [1, 6] | pIC50 [2, 7] | pIC50 [2, 8] | Compound |
| --- | --- | --- | --- | --- | --- | --- |
| > 7.00 | > 7.30 | ≥ 6.00 | > 6.30 | ≥ 6.00 |  | COc1nc2nc(C)nc(N[C@H](C)c3cccc(C(F)(F)CN4CCC4)c3F)c2cc1C1(C#N)CC1 [Compound 277, (R)-1-(4-((1-(3-(2-(azetidin-1-yl)-1,1-difluoroethyl)-2-fluorophenyl)ethyl)amino)-7-methoxy-2-methylpyrido [2,3-d]pyrimidin-6-yl)cyclopropane-1-carbonitrile] |
| > 7.00 |  | 5.00 to 6.00 |  | < 5.00 |  | COc1nc2nc(OCC3COC3)nc(N[C@H](C)c3cccc(C(F)F)c3F)c2cc1C1(C#N)CC1 [Compound 278, (R)-1-(4-((1-(3-(difluoromethyl)-2-fluorophenyl)ethyl)amino)-7-methoxy-2-(oxetan-3-ylmethoxy)pyrido [2,3-d]pyrimidin-6-yl)cyclopropane-1-carbonitrile] |
| > 7.00 | > 7.30 | ≥ 6.00 | > 6.30 | ≥ 6.00 | > 6.30 | CCN1CCC(c2cc3c(N[C@H](C)c4cccc(C(F)(F)F)c4F)nc(C)nc3nc2OC)CC1 [Compound 288, (R)-6-(1-ethylpiperidin-4-yl)-N-(1-(2-fluoro-3-(trifluoromethyl)phenyl)ethyl)-7-methoxy-2-methylpyrido [2,3-d]pyrimidin-4-amine] |
| > 7.00 | > 7.30 | ≥ 6.00 | > 6.30 | ≥ 6.00 | > 6.30 | Cc1nc(N[C@H](C)c2cccc(C(F)F)c2F)c2cc(C3(C#N)CC3)c(N3CCN(C)CC3)nc2n1 [Compound 295, (R)-1-(4-((1-(3-(difluoromethyl)-2-fluorophenyl)ethyl)amino)-2-methyl-7-(4-methylpiperazin-1-yl)pyrido[2,3-d]pyrimidin-6-yl)cyclopropanecarbonitrile] |
| > 7.00 |  | ≥ 6.00 |  | 5.00 to 6.00 |  | Cc1nc(N[C@H](C)c2cccc(C(F)F)c2F)c2cc(C3(C#N)CC3)c(OC[C@@H]3CC(F)(F)CN3C)nc2n1 [Compound 296, 1-(7-(((S)-4,4-difluoro-1-methylpyrrolidin-2-yl)methoxy)-4-(((R)-1-(3-(difluoromethyl)-2-fluorophenyl)ethyl)amino)-2-methylpyrido[2,3-d]pyrimidin-6-yl)cyclopropane-1-carbonitrile] |
|  | > 7.30 | ≥ 6.00 | > 6.30 | 5.00 to 6.00 |  | Cc1nc(N[C@H](C)c2cccc(C(F)F)c2F)c2cc(C3(C#N)CC3)c(O[C@H]3CCOC3)nc2n1 [Compound 297, 1-(4-(((R)-1-(3-(difluoromethyl)-2-fluorophenyl)ethyl)amino)-2-methyl-7-(((S)-tetrahydrofuran-3-yl)oxy)pyrido[2,3-d]pyrimidin-6-yl)cyclopropane-1-carbonitrile] |
| > 7.00 | > 7.30 | ≥ 6.00 |  | 5.00 to 6.00 |  | Cc1nc(N[C@H](C)c2cccc(C(F)F)c2F)c2cc(C3(C#N)CC3)c(OCC3COC3)nc2n1 [Compound 299, (R)-1-(4-((1-(3-(difluoromethyl)-2-fluorophenyl)ethyl)anrino)-2-methyl-7-(oxetan-3-ylmethoxy)pyrido[2,3-d]pyrimidin-6-yl)cyclopropane-1-carbonitrile] |
| > 7.00 | > 7.30 | ≥ 6.00 | > 6.30 | ≥ 6.00 |  | COc1nc2nc(C)nc(N[C@H](C)c3cccc(C(F)(F)F)c3F)c2cc1C1CCN(C(=O)CN(C)C)CC1 [Compound 302, (R)-2-(dimethylamino)-1-(4-(4-((1-(2-fluoro-3-(trifluoromethyl)phenyl)ethyl)amino)-7-methoxy-2-methylpyrido[2,3-d]pyrimidin-6-yl)piperidin-1-yl)ethan-1-one] |
| > 7.00 | > 7.30 | ≥ 6.00 | > 6.30 | ≥ 6.00 | > 6.30 | COc1nc2nc(C)nc(N[C@H](C)c3cccc(C(F)(F)F)c3F)c2cc1C1CCN(C(=O)CO)CC1 [Compound 304, (R)-1-(4-(4-((1-(2-fluoro-3-(trifluoromethyl)phenyl)ethyl)amino)-7-methoxy-2-methylpyrido[2,3-d]pyrimidin-6-yl)piperidin-1-yl)-2-hydroxyethan-1-one] |
| > 7.00 | > 7.30 | ≥ 6.00 |  | ≥ 6.00 | > 6.30 | COc1nc2nc(C)nc(N[C@H](C)c3cccc(C(F)(F)CO)c3F)c2cc1N1CCS(=O)(=O)CC1 [Compound 307, (R)-4-(4-((1-(3-(1,1-difluoro-2-hydroxyethyl)-2-fluorophenyl)ethyl)amino)-7-methoxy-2-methylpyrido[2,3-d]pyrimidin-6-yl)thiomorpholine 1,1-dioxide] |
| > 7.00 | > 7.30 | ≥ 6.00 | > 6.30 | ≥ 6.00 |  | COc1nc2nc(C)nc(N[C@H](C)c3cccc(C(F)(F)F)c3F)c2cc1C1CCN(C)CC1 [Compound 309, (R)-N-(1-(2-fluoro-3-(trifluoromethyl)phenyl)ethyl)-7-methoxy-2-methyl-6-(1-methylpiperidin-4-yl)pyrido[2,3-d]pyrimidin-4-amine] |
